Experiment: xn = mol fraction of the nth substance listed
Conditions: 100 kPa, Liquid; for viscosity: Concentric cylinders viscometry; for mass density: Vibrating tube method

CCC(C)=O [butanone] + CCCCO
Conditions | mass density [kg/m3] | viscosity [mPa·s]
288.15 K, x1 = 0.0997 | 813.126 | 2.293
288.15 K, x1 = 0.1999 | 812.877 | 1.645
288.15 K, x1 = 0.3003 | 812.583 | 1.257
288.15 K, x1 = 0.4008 | 812.253 | 1.009
288.15 K, x1 = 0.5003 | 811.906 | 0.8332
288.15 K, x1 = 0.6001 | 811.555 | 0.7013
288.15 K, x1 = 0.6992 | 811.203 | 0.5975
288.15 K, x1 = 0.7991 | 810.843 | 0.5248
288.15 K, x1 = 0.899 | 810.477 | 0.4708
288.15 K, x1 = 1 | 810.133 | 0.4306
293.15 K, x1 = 0.0997 | 809.157 | 2.034
293.15 K, x1 = 0.1999 | 808.747 | 1.483
293.15 K, x1 = 0.3003 | 808.3 | 1.147
293.15 K, x1 = 0.4008 | 807.824 | 0.9297
293.15 K, x1 = 0.5003 | 807.337 | 0.7756
293.15 K, x1 = 0.6001 | 806.848 | 0.6603
293.15 K, x1 = 0.6992 | 806.362 | 0.5696
293.15 K, x1 = 0.7991 | 805.875 | 0.4997
293.15 K, x1 = 0.899 | 805.39 | 0.4505
293.15 K, x1 = 1 | 804.926 | 0.4136
298.15 K, x1 = 0.0997 | 805.165 | 1.814
298.15 K, x1 = 0.1999 | 804.592 | 1.343
298.15 K, x1 = 0.3003 | 803.992 | 1.051
298.15 K, x1 = 0.4008 | 803.369 | 0.8588
298.15 K, x1 = 0.5003 | 802.741 | 0.7227
298.15 K, x1 = 0.6001 | 802.114 | 0.6178
298.15 K, x1 = 0.6992 | 801.494 | 0.5358
298.15 K, x1 = 0.7991 | 800.878 | 0.475
298.15 K, x1 = 0.899 | 800.271 | 0.4313
298.15 K, x1 = 1 | 799.695 | 0.3962
303.15 K, x1 = 0.0997 | 801.147 | 1.626
303.15 K, x1 = 0.1999 | 800.407 | 1.221
303.15 K, x1 = 0.3003 | 799.653 | 0.9652
303.15 K, x1 = 0.4008 | 798.884 | 0.7945
303.15 K, x1 = 0.5003 | 798.115 | 0.6753
303.15 K, x1 = 0.6001 | 797.349 | 0.5823
303.15 K, x1 = 0.6992 | 796.597 | 0.5093
303.15 K, x1 = 0.7991 | 795.852 | 0.4521
303.15 K, x1 = 0.899 | 795.126 | 0.4114
303.15 K, x1 = 1 | 794.435 | 0.3793
308.15 K, x1 = 0.0997 | 797.097 | 1.465
308.15 K, x1 = 0.1999 | 796.195 | 1.115
308.15 K, x1 = 0.3003 | 795.288 | 0.8886
308.15 K, x1 = 0.4008 | 794.369 | 0.7364
308.15 K, x1 = 0.5003 | 793.457 | 0.6314
308.15 K, x1 = 0.6001 | 792.551 | 0.5453
308.15 K, x1 = 0.6992 | 791.666 | 0.48
308.15 K, x1 = 0.7991 | 790.793 | 0.4294
308.15 K, x1 = 0.899 | 789.946 | 0.3918
308.15 K, x1 = 1 | 789.142 | 0.3626
313.15 K, x1 = 0.0997 | 793.009 | 1.327
313.15 K, x1 = 0.1999 | 791.945 | 1.022
313.15 K, x1 = 0.3003 | 790.885 | 0.8197
313.15 K, x1 = 0.4008 | 789.819 | 0.6843
313.15 K, x1 = 0.5003 | 788.763 | 0.5907
313.15 K, x1 = 0.6001 | 787.719 | 0.5143
313.15 K, x1 = 0.6992 | 786.701 | 0.4552
313.15 K, x1 = 0.7991 | 785.7 | 0.4073
313.15 K, x1 = 0.899 | 784.731 | 0.3723
313.15 K, x1 = 1 | 783.814 | 0.3461
318.15 K, x1 = 0.0997 | 788.88 | 1.206
318.15 K, x1 = 0.1999 | 787.652 | 0.939
318.15 K, x1 = 0.3003 | 786.442 | 0.7575
318.15 K, x1 = 0.4008 | 785.228 | 0.637
318.15 K, x1 = 0.5003 | 784.03 | 0.5532
318.15 K, x1 = 0.6001 | 782.849 | 0.485
318.15 K, x1 = 0.6992 | 781.696 | 0.43
318.15 K, x1 = 0.7991 | 780.568 | 0.386
318.15 K, x1 = 0.899 | 779.478 | 0.3532
318.15 K, x1 = 1 | 778.451 | 0.3303
323.15 K, x1 = 0.0997 | 784.708 | 1.096
323.15 K, x1 = 0.1999 | 783.318 | 0.8726
323.15 K, x1 = 0.3003 | 781.954 | 0.7156
323.15 K, x1 = 0.4008 | 780.593 | 0.6041
323.15 K, x1 = 0.5003 | 779.253 | 0.5225
323.15 K, x1 = 0.6001 | 777.934 | 0.4597
323.15 K, x1 = 0.6992 | 776.652 | 0.4101
323.15 K, x1 = 0.7991 | 775.398 | 0.369
323.15 K, x1 = 0.899 | 774.188 | 0.3356
323.15 K, x1 = 1 | 773.047 | 0.3168

COC(=O)CCCCC(=O)OC [dimethyl 1,6-hexanedioate] + CCC(C)=O
viscosity [mPa·s]
Conditions | x1 = 0.1002 | x1 = 0.2002 | x1 = 0.3002 | x1 = 0.4004 | x1 = 0.5001 | x1 = 0.5999 | x1 = 0.6998 | x1 = 0.7994 | x1 = 0.8997 | x1 = 1
288.15 K | 0.5707 | 0.7368 | 0.9419 | 1.183 | 1.467 | 1.802 | 2.191 | 2.636 | 3.16 | 3.751
293.15 K | 0.5434 | 0.6952 | 0.8803 | 1.096 | 1.347 | 1.64 | 1.974 | 2.353 | 2.794 | 3.289
298.15 K | 0.5166 | 0.6563 | 0.824 | 1.019 | 1.242 | 1.498 | 1.79 | 2.12 | 2.491 | 2.91
303.15 K | 0.4912 | 0.6199 | 0.7742 | 0.9509 | 1.15 | 1.38 | 1.635 | 1.921 | 2.241 | 2.604
308.15 K | 0.4667 | 0.5865 | 0.7277 | 0.8892 | 1.069 | 1.274 | 1.5 | 1.75 | 2.033 | 2.342
313.15 K | 0.4425 | 0.555 | 0.6853 | 0.8331 | 0.9961 | 1.181 | 1.382 | 1.604 | 1.851 | 2.121
318.15 K | 0.4199 | 0.525 | 0.6465 | 0.7827 | 0.9324 | 1.098 | 1.279 | 1.476 | 1.695 | 1.933
323.15 K | 0.4037 | 0.502 | 0.6165 | 0.7425 | 0.883 | 1.036 | 1.202 | 1.381 | 1.577 | 1.79

— the NIST ThermoML archive (doi:10.1021/je5007696)
